Measurements published in ChEMBL document CHEMBL4627301, “Discovery of novel hydroxyamidine derivatives as indoleamine 2,3-dioxygenase 1 inhibitors with in vivo anti-tumor efficacy” (Bioorg Med Chem Lett, 2020).
Activity calls are given as the source filed them. The rule behind the calls is not given here.

Assays:
[1] = biological target: T1, Indoleamine 2,3-dioxygenase 1 (Homo sapiens, UniProt P14902); experiment: Inhibition of IDO1 (unknown origin) assessed as reduction in kynurenine formation using L-tryptophan as substrate incubated for 60 mins by fluorescence based assay
[2] = biological target: T1, Indoleamine 2,3-dioxygenase 1; experiment: Inhibition of IDO1 in IFN-gamma stimulated human HeLa cells assessed as reduction in kynurenine formation using L-tryptophan as substrate incubated for 24 hrs by UV-spectrophotometry; format: cell-based
[3] = test system: Lewis lung carcinoma cell line; experiment: Antitumor activity against mouse LLC cells xenografted in C57BL/6 mouse assessed as tumor growth inhibition at 100 mg/kg, po administered bid for 14 days and measured for 14 days; format: functional, organism-based
[4] = Toxicity in C57BL/6 mouse xenografted with mouse LLC cells assessed as body weight loss at 100 mg/kg, po administered bid for 14 days and measured for 14 days; format: organism-based, Lewis lung carcinoma; settings: in vivo, 336 h

T1 sequence (P14902 whole entry): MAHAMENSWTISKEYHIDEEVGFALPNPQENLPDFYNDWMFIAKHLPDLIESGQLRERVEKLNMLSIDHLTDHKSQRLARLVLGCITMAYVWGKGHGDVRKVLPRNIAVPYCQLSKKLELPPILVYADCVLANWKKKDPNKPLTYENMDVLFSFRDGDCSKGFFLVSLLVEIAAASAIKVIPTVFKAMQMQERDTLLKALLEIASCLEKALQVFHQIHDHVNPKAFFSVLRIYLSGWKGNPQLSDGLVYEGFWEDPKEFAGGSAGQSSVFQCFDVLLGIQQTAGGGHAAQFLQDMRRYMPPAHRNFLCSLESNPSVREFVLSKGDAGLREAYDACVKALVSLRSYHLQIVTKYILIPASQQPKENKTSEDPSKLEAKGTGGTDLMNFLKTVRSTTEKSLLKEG

SMILES	IC50 [1]	EC50 [2]	TGI [3]	Activity [4]
NS(=O)(=O)CCONc1nonc1/C(=N/O)Nc1ccc(F)c(Br)c1	87 nM	27 nM	–	–
CN(C)S(=O)(=O)CCNc1nonc1/C(=N/O)Nc1ccc(F)c(Br)c1	105 nM	17 nM	–	–
O=S1(=O)CC(Nc2nonc2/C(=N/O)Nc2ccc(F)c(Br)c2)C1	99 nM	59 nM	–	–
O=S(=O)(CCNc1nonc1/C(=N/O)Nc1ccc(F)c(Br)c1)N1CCC1	191 nM	143 nM	–	–
CN(C)S(=O)(=O)CCCNc1nonc1/C(=N/O)Nc1ccc(F)c(Br)c1	97 nM	20 nM	–	–
NS(=O)(=O)CCCNc1nonc1/C(=N/O)Nc1ccc(F)c(Br)c1	126 nM	15 nM	–	–
O=S(=O)(CCNc1nonc1/C(=N/O)Nc1ccc(F)c(Br)c1)NCC(F)(F)F	140 nM	268 nM	–	–
NNS(=O)(=O)CCNc1nonc1/C(=N/O)Nc1ccc(F)c(Br)c1	135 nM	> 800 nM	–	–
CS(=O)(=O)NNc1nonc1/C(=N/O)Nc1ccc(F)c(Br)c1	609 nM	> 800 nM	–	–
NS(=O)(=O)NNc1nonc1/C(=N/O)Nc1ccc(F)c(Br)c1	218 nM	101 nM	–	–
N#CN=S1CC(Nc2nonc2/C(=N/O)Nc2ccc(F)c(Br)c2)C1 (stereo unspecified)	69 nM	73 nM	–	–
CCNS(=O)(=O)CCNc1nonc1/C(=N/O)Nc1ccc(F)c(Br)c1	95 nM	41 nM	–	–
C#CCNS(=O)(=O)CCNc1nonc1/C(=N/O)Nc1ccc(F)c(Br)c1	218 nM	33 nM	–	–
NS(=O)(=O)NCCNc1nonc1/C(=N/O)Nc1ccc(F)c(Br)c1	–	–	Active	–

Continued by falling IC50 [1], values first:

IC50 [1]	EC50 [2]	SMILES	TGI [3]	Activity [4]
312 nM	268 nM	O=S(=O)(CCNc1nonc1/C(=N/O)Nc1ccc(F)c(Br)c1)NCC1CC1	–	–
212 nM	79 nM	[O-][S+]1CC(Nc2nonc2/C(=N/O)Nc2ccc(F)c(Br)c2)C1 (stereo unspecified)	–	–
208 nM	53 nM	N=S1(=O)CC(Nc2nonc2/C(=N/O)Nc2ccc(F)c(Br)c2)C1 (stereo unspecified)	–	–
126 nM	> 800 nM	O=S(=O)(CCNc1nonc1/C(=N/O)Nc1ccc(F)c(Br)c1)NO	–	–
108 nM	556 nM	NNc1nonc1/C(=N/O)Nc1ccc(F)c(Br)c1	–	–
71 nM	11 nM	NS(=O)(=O)CCNc1nonc1/C(=N/O)Nc1ccc(F)c(Br)c1	Active	Non-Toxic
